In ChEMBL document CHEMBL1139782, “Dual acting antioxidant A1 adenosine receptor agonists” (Bioorg Med Chem Lett, 2007):
The source made the active and inactive calls. The calls are words filed in the database; no cut-off is given here.

Experiments:
Adenosine receptor A2b = target: T1, Adenosine receptor A2b (Homo sapiens, UniProt P29275); assay: Binding affinity to adenosine A2B receptor
T1 sequence (P29275 whole entry): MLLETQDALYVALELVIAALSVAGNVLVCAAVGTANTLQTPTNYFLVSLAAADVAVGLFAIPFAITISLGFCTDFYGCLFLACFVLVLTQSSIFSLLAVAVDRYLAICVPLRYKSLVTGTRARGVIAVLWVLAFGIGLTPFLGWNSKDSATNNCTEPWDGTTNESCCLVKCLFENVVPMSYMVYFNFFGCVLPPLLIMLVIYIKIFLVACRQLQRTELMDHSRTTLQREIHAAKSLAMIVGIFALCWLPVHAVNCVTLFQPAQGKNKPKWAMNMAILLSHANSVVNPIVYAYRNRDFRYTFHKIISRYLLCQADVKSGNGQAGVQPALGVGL

Adenosine receptor A3 = target: T2, Adenosine receptor A3 (Homo sapiens, UniProt P0DMS8); assay: Binding affinity to adenosine A3 receptor
T2 sequence (P0DMS8 whole entry): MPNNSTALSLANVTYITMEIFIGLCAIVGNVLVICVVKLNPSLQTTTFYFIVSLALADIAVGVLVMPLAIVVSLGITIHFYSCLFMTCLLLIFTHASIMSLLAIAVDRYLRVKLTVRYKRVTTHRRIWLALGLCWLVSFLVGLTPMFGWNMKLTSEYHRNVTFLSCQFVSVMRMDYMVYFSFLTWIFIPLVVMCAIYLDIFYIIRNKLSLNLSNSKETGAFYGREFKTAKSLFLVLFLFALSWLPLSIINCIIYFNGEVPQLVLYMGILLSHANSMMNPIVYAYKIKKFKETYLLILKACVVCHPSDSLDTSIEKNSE

Adenosine receptor A2a = Adenosine receptor A2a (Homo sapiens, UniProt P29274); assay: Binding affinity to adenosine A2A receptor
Adenosine receptor A2a, sequence (P29274 whole entry): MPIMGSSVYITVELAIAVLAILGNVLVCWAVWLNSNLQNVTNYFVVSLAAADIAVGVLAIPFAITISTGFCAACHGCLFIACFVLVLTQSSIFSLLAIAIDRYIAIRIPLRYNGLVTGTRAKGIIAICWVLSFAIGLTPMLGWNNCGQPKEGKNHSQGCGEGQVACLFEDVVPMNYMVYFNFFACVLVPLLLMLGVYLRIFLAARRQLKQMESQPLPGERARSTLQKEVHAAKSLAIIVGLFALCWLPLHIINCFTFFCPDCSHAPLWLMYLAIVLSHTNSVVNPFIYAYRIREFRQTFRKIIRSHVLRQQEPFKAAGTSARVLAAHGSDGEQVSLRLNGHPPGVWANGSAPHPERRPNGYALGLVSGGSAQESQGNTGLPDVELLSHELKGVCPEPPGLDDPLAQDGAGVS

Adenosine receptor A1 = target: T3, Adenosine receptor A1 (Homo sapiens, UniProt P30542); assay: Binding affinity to adenosine A1 receptor
T3 sequence (P30542 whole entry): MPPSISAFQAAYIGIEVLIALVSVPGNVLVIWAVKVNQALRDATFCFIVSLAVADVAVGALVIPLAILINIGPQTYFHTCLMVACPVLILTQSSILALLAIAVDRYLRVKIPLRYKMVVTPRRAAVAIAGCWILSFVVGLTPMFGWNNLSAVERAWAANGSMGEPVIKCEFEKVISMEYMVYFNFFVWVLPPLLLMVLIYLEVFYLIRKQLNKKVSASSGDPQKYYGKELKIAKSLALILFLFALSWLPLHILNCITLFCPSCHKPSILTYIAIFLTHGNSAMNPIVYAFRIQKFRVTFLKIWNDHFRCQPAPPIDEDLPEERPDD

[1] = target: T4, Adenosine receptor A1 (Rattus norvegicus) (UniProt P25099); assay: Agonist activity at adenosine A1 receptor in embryonic rat H9C2 cell model of ischemia assessed as reduction of cell death at 10 nM; type: functional, cell-based; design: scale not given: the % may be the effect or the level left
T4 sequence (whole entry): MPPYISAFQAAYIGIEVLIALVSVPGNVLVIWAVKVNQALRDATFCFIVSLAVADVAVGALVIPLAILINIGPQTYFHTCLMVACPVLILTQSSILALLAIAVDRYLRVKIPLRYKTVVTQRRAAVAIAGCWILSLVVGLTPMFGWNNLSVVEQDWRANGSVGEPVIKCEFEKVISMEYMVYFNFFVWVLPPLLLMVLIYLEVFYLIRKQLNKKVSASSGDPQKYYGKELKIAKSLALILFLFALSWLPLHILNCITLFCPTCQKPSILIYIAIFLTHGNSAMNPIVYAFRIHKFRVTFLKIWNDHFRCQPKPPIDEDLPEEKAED

[2] = target: T4, Adenosine receptor A1 (Rattus norvegicus); assay: Reversal of agonistic activity at adenosine A1 receptor in embryonic rat H9C2 cell model of ischemia assessed as reduction of cardioprotective effect in presence of DPCPX A1 antagonist; type: functional, tissue-based; conditions: Heart
[3] = target: Adenosine receptors; A1 & A3 (Homo sapiens) (UniProt P30542+P0DMS8); assay: Selectivity for adenosine A1 receptor over adenosine A3 receptor

Question: `CC1(C)c2ccc(Nc3ncnc4c3ncn4[C@@H]3O[C@H](CO)[C@@H](O)[C@H]3O)cc2C(C)(C)N1[O]` was tested. Which Ki (Adenosine receptor A2b) did it give?
Answer: > 10000 nM

Question: And the Ki (Adenosine receptor A3)?
Answer: 790 nM

Question: And the Ki (Adenosine receptor A2a)?
Answer: > 10000 nM

Question: And the Ki (Adenosine receptor A1)?
Answer: 100 nM

Question: For `CC1(C)c2ccc(C(=O)NCCCCCCNc3ncnc4c3ncn4[C@@H]3O[C@H](CO)[C@@H](O)[C@H]3O)cc2C(C)(C)N1[O]`, which Ki (Adenosine receptor A2b) is on record?
Answer: > 10000 nM

Question: And the Ki (Adenosine receptor A3)?
Answer: 89 nM

Question: What about the Ki (Adenosine receptor A2a) of the same compound?
Answer: > 10000 nM

Question: And the Ki (Adenosine receptor A1)?
Answer: 15 nM

Question: With `CC1(C)CC(Nc2ncnc3c2ncn3[C@@H]2O[C@H](CO)[C@@H](O)[C@H]2O)CC(C)(C)N1` as the compound, how does the Ki (Adenosine receptor A2b) read?
Answer: > 10000 nM

Question: And the Ki (Adenosine receptor A3)?
Answer: 25000 nM

Question: What about the Ki (Adenosine receptor A2a) of the same compound?
Answer: > 10000 nM

Question: And the Ki (Adenosine receptor A1)?
Answer: 1580 nM

Question: Which results are given for `CC(C)(C)c1cc(C(=O)NCCCCCCNc2ncnc3c2ncn3[C@@H]2O[C@H](CO)[C@@H](O)[C@H]2O)cc(C(C)(C)C)c1O`?
Answer: Ki (Adenosine receptor A2b): > 10000 nM; Ki (Adenosine receptor A3): 14 nM; Ki (Adenosine receptor A2a): > 10000 nM; Ki (Adenosine receptor A1): 40 nM

Question: What does the source list for `CC1(C)c2ccc(C(=O)NCCc3ccc(Nc4ncnc5c4ncn5[C@@H]4O[C@H](CO)[C@@H](O)[C@H]4O)cc3)cc2C(C)(C)N1[O]`?
Answer: Activity [1]: 54.7%; Ki (Adenosine receptor A2b): 1450 nM; Ki (Adenosine receptor A3): 230 nM; Ki (Adenosine receptor A2a): > 10000 nM; Activity [2]: Active; Ratio Ki [3]: 3; Ki (Adenosine receptor A1): 7 nM

Question: With `CC1(C)CC(CNc2ncnc3c2ncn3[C@@H]2O[C@H](CO)[C@@H](O)[C@H]2O)C(C)(C)N1[O]` (stereo not given in full) as the compound, how does the Activity [1] read?
Answer: 84.8%

Question: And the Ki (Adenosine receptor A2b)?
Answer: > 10000 nM

Question: And the Ki (Adenosine receptor A3)?
Answer: 21200 nM

Question: And the Ki (Adenosine receptor A2a)?
Answer: > 10000 nM

Question: What about the Activity [2] of the same compound?
Answer: Active

Question: And the Ki (Adenosine receptor A1)?
Answer: 50 nM

Question: For `OC[C@H]1O[C@@H](n2cnc3c(NC4CCCC4)ncnc32)[C@H](O)[C@@H]1O`, which Activity [1] is on record?
Answer: 86.2%

Question: What about the Activity [2] of the same compound?
Answer: Active

Question: Which Ki (Adenosine receptor A2b) does the source give for `CC1(C)NC(C)(C)c2cc(Nc3ncnc4c3ncn4[C@@H]3O[C@H](CO)[C@@H](O)[C@H]3O)ccc21` here?
Answer: > 10000 nM

Question: What about the Ki (Adenosine receptor A3) of the same compound?
Answer: 280 nM

Question: And the Ki (Adenosine receptor A2a)?
Answer: > 10000 nM

Question: What about the Ki (Adenosine receptor A1) of the same compound?
Answer: 290 nM

Question: Which Ki (Adenosine receptor A2b) does the source give for `CC1(C)CC(Nc2ncnc3c2ncn3[C@@H]2O[C@H](CO)[C@@H](O)[C@H]2O)CC(C)(C)N1[O]` here?
Answer: > 10000 nM

Question: What about the Ki (Adenosine receptor A3) of the same compound?
Answer: 8560 nM

Question: And the Ki (Adenosine receptor A2a)?
Answer: > 10000 nM

Question: What about the Ki (Adenosine receptor A1) of the same compound?
Answer: 50 nM

Question: How did the Activity [1] turn out when `CC(C)(C)c1cc(C(=O)NCCc2ccc(Nc3ncnc4c3ncn4[C@@H]3O[C@H](CO)[C@@H](O)[C@H]3O)cc2)cc(C(C)(C)C)c1O` was run?
Answer: 73.2%

Question: What about the Ki (Adenosine receptor A2b) of the same compound?
Answer: 8580 nM

Question: And the Ki (Adenosine receptor A3)?
Answer: 84 nM

Question: What about the Ki (Adenosine receptor A2a) of the same compound?
Answer: > 10000 nM

Question: And the Activity [2]?
Answer: Active

Question: What about the Ki (Adenosine receptor A1) of the same compound?
Answer: 32 nM
